Test results taken from patent US5397780A, “Pyrroloazepine derivative” (Suntory Limited, priority 1993, dated 1995).

What was measured:
α1 = assay: Anti-α1 action: norepinephrine-induced tonic contraction of guinea pig thoracic aorta; design: species or system Hartley male guinea pig; conditions: contraction by 10^-5 M norepinephrine = 100%
Procedure: (§1) With respect to certain compounds of the present invention, their anti-α1 action and anti-serotonin (5-HT) action were investigated by the testing methods which will be described below.
The thoracic aorta of each Hartley male guinea pig (body weight: 300-500 g) was excised. A sample cut in a helical form was suspended under 1 g load in a Magnus cylinder filled with the Tyrode solution of 37° C. which had been saturated with a mixed gas consisting of 95% O2 +5% CO2. Using an isometric transducer ("TB-612J"/NIHON KOHDEN) and a pressure preamplifier ("AP-620G"/NIHON KOHDEN), variations in tension were measured. The measurement results were recorded on a thermal pen-writing recorder ("WT-647G"/NIHON KOHDEN).
Taking the tonic contraction induced by 10^-5 M norepinephrine (NE) as 100% the percent contractions upon addition of each test drug at 10^-8 and 10^-7 M were determined as anti-α1 action.

serotonin (5-HT) = assay: Anti-serotonin (anti-5-HT) action: serotonin-induced contraction of guinea pig superior mesenteric artery; design: species or system Hartley male guinea pig; conditions: contraction by 10^-5 M serotonin = 100%
Procedure: as §1
A sample cut in a helical form was suspended under 0.3 g load in a Magnus cylinder filled with the Tyrode solution of 37° C. which had been saturated with a mixed gas consisting of 95% O2 +5% CO2. Using an isometric transducer ("UL-10"/SHINKOH K.K.) and a pressure preamplifier ("DSA-605A"/SHINKOH K.K.), variations in tension were measured. The measurement results were recorded on a pen-writing recorder ("VP-6537A"/NATIONAL K.K.). Taking the contraction induced by 10^-5 M serotonin (5-HT) as 100% the percent contractions in the presence of each test drug at 10^-7 and 10^-6 M were determined as anti-5-HT action.

| Compound | Anti α1 action (% of Control), percent contraction (α1; test drug 10^-7 M, 0.1 µM) | Anti α1 action (% of Control), percent contraction (α1; test drug 10^-8 M, 0.01 µM) | Anti 5-HT action (% of Control), percent contraction (serotonin (5-HT); test drug 10^-6 M, 1 µM) | Anti 5-HT action (% of Control), percent contraction (serotonin (5-HT); test drug 10^-7 M, 0.1 µM) |
| --- | --- | --- | --- | --- |
| CN1CCC(=NO)c2ccn(CCCCN3CCN(c4ccc(F)cc4)CC3)c2C1=O [Compound No. 29, 4-Hydroxyimino-7-methyl-1-[4-[4-(4-fluorophenyl)piperazin-1-yl]butyl]-4,5,6,7-tetrahydropyrrolo[2,3-c]azepin-8(1H)-one] | 39.5 % of Control | 94.2 % of Control | 12.0 % of Control | 66.2 % of Control |
| CN1CCC(O)c2ccn(CCCCN3CCN(c4ccccc4)CC3)c2C1=O (stereo not drawn) [Compound No. 24, 4-hydroxy-7-methyl-1-[4-(4-phenylpiperazin-1-yl)butyl]-4,5,6,7-tetrahydropyrrolo[2,3-c]azepin-8(1H)-one] | 41.0 % of Control | 90.3 % of Control | 36.0 % of Control | 78.3 % of Control |
| COc1ccccc1N1CCN(CCCCCn2ccc3c2C(=O)N(Cc2ccccc2)CCC3=O)CC1 [Compound No. 36, 7-Benzyl-1-[5-[4-(2-methoxyphenyl)piperazin-1-yl]pentyl]-6,7-dihydropyrrolo[2,3-c]azepine-4,8(1H,5H)-dione] | 21.4 % of Control | 43.6 % of Control | 61.8 % of Control | 84.0 % of Control |
| CN1CCC(=NO)c2ccn(CCCCN3CCN(c4ccccc4)CC3)c2C1=O [Compound No. 27, 4-Hydroxyimino-7-methyl-1-[4-(4-phenylpiperazin-1-yl)butyl]-4,5,6,7-tetrahydropyrrolo[2,3-c]azepin-8(1H)-one] | 18.4 % of Control | 74.2 % of Control | 25.7 % of Control | 69.8 % of Control |
| CN1CCC(=NO)c2ccn(CCCCN3CCN(c4cccc(Cl)c4)CC3)c2C1=O [Compound No. 31, 1-[4-[4-(3-Chlorophenyl)piperazin-1-yl]butyl]-4-hydroxyimino-7-methyl-4,5,6,7-tetrahydropyrrolo[2,3-c]azepin-8(1H)-one] | 19.4 % of Control | 93.9 % of Control | 69.0 % of Control | 86.2 % of Control |
| O=C1CCN(Cc2ccccc2)C(=O)c2c1ccn2CCCCCN1CCN(c2ccccc2)CC1 [Compound No. 20, 7-Benzyl-1-[5-(4-phenylpiperazin-1-yl)pentyl]6,7-dihydropyrrolo[2,3-c]azepine-4,8(1H,5H)-dione] | 19.9 % of Control | 49.2 % of Control | 45.7 % of Control | 54.5 % of Control |
